Literature values in patent US20090145189A1, “Composition and a manufacturing method thereof” (priority 2007, published 2009).

Tests used:
[1] = concentrations above 40 wt %, such as 50 wt %

Structure (SMILES) | Viscosity [1] | Water solubility
O=C([O-])CN(CCN(CC(=O)[O-])CC(=O)[O-])CCN(CC(=O)[O-])CC(=O)[O-].[Na+].[Na+].[Na+].[Na+].[Na+] [DTPANa5, penta sodium salt of diethylenetriamine-N,N,N-penta-acetic acid] | too viscous to allow convenient handling | 
O=C(O)CN(CCN(CC(=O)O)CC(=O)O)CCN(CC(=O)O)CC(=O)O [DTPA, diethylenetriamine-N,N,N-penta-acetic acid] |  | low water solubility
